Measurements taken from patent publication US9757462B2, “Combined pharmaceutical preparation” (Sapporo Medical University, priority 2010, dated 2017).

Legend:
[1] = system: PANC-1; assay: 14C-fucose binding to cells; details: 14C-fucose 0-200 nM, 4° C., 1 hr
Procedure: (§1) In a 12-well culture plate, 1×10^5 cells were seeded and cultured overnight, and ^14C-fucose (specific activity: 55 mCi/mmol) diluted with BSA-PBS at a concentration of 0-200 nM was added to the cells and cultured at 4° C. for 1 hr. The cells were washed with cold BSA-PBS, lysed by 1% Triton X100/PBS-0.25% trypsin, and the radioactivity of the ^14C-fucose bound to the cell membrane was measured (FIGS. 2 and 3).

[2] = system: AsPC-1; assay: 14C-fucose binding to cells
Procedure: as §1
In another experiment, in a 12-well culture plate, 2×10^5 cells were seeded and cultured overnight, 10 nmol of ^14C-fucose (specific activity: 55 mCi/mmol) were added to the cells either singly or together with 1 pmol of fucose, and cultured at 4° C. for 1, 3, or 24 hr. The cells under each condition were washed with cold BSA-PBS, lysed by 1% Triton X100/PBS-0.25% trypsin, and the radioactivity of the ^14C-fucose was measured (FIG. 4).

[3] = Hematologic/biochemical analyses and adverse effects during the treatment period; assay type: in vivo, mouse
Procedure: In the preparation of subcutaneous model, AsPC-1 cells (2×10^6 cells) were seeded on the back side of a mouse (4-6 weeks old). Bioluminescence was measured from 0 to 4 days after injection, and the mice were randomly divided into multiple groups before starting the treatment. In vivo optical imaging was performed using Xenogen-IVIS-cooled […] optical system (Xenogen-IVIS). Bound CDD (such as CDDP in fucosylated liposomes) or free CDDP was in a dose of 2 mg/kg for each administration. Injection was performed twice in the first week, then twice in the second and third weeks. All the mice used […], sacrificed on the next day of the final injection prior to the final measurement of bioluminescence.
Samples were collected from mouse orbital venous plexus. In the table, WBC represents white blood cell count, RBC represents red blood cell, count, Hb represents hemoglobin concentration, PLT represents Platelet count, AST represents aspartate aminotransferase concentration, […], Bil represents bilirubin concentration, BS represents blood glucose, Cr represents creatinine concentration.
In pancreatic cancer model mice (AsPC-1), effects of suppression of tumor growth by CDDP, CDDP-encapsulated liposomes (F0), and CDDP-encapsulated liposomes (F50) were compared (FIG. 20). […] Tumor volumes were measured at 4, 8, 11, 15, 18 and 22 days after the transplant.

[4] = cited from earlier work
[5] = system: AsPC-1 cells; assay: Impact of excessive mannose on transfection efficiency of fucosylated liposomes (flow cytometry); assay type: cell-based; details: excessive amount of mannose
Procedure: Mannose is phosphorylated to mannose-6-phosphate by hexokinase, then converted to fructose-6 phosphate that is used in the glycolysis. However, 90% of the mannose taken into the body is excreted unchanged into urine within 30-60 min, and 99% of the remaining mannose is excreted within 8 hr.

Row | SMILES | binding of fucose to cells [1] | binding of 14C-fucose in competition with non-labeled fucose ([2]; 4° C. for 1, 3, or 24 hr) | binding of fucose to cells ([2]; 14C-fucose 0-200 nM, 4° C., 1 hr) | affinity of fucose binding ([2]; AsPC-1 compared with PANC-1) | adverse effect ([3]; 1 mg of mannose for a mouse) | adverse effects (as shown in Table 5) ([3]; treatment period) | mannose taken into the body excreted unchanged into urine ([4]; within 30-60 min) [%] | remaining mannose excreted ([4]; within 8 hr) [%] | impact on the transfection efficiency of fucosylated liposomes [5]
1 | C[C@H](O)[C@@H](O)[C@@H](O)[C@H](O)C=O [fucose, L-fucose] | binds to AsPC-1 and PANC-1 via a receptor-like mechanism | inhibited by non-labeled fucose | binds to AsPC-1 and PANC-1 via a receptor-like mechanism | affinity is higher in the fucosylated sugar chain high-producing cell line AsPC-1 |  |  |  |  | 
2 | O=C[C@@H](O)[C@@H](O)[C@H](O)[C@H](O)CO [mannose, D-mannose] |  |  |  |  | no apparent adverse effect was observed | does not have any adverse effects | 90 | 99 | no apparent impact was observed
